Results taken from patent publication US10414811B2, “Protease-resistant lipidated GLP-1 analogs” (MEDIMMUNE LIMITED, priority 2015, dated 2019).
Read-outs that look alike come from different tables or passages of the source. Numbered stars: 1 amine (or outer) side, 2 acyl side, 3 side chain; on linkers, the order of the positions; unused ones are H or OH. Square brackets hold non-standard residues; d marks the D form. Side chains are listed from the residue outwards. Peptide text beside a SMILES is read from it. * marks the point of attachment. γGlu = O=C(O)[C@H](CCC(=O)[*:2])N[*:1]; αMeF = C[C@](N)(Cc1ccccc1)C(=O)O; αMeK = C[C@](N)(CCCCN)C(=O)O; Lauroyl = CCCCCCCCCCCC(=O)*; αMeS = C[C@](N)(CO)C(=O)O; Nle = CCCC[C@H](N)C(=O)O; AEEA = NCCOCCOCC(=O)O; Aib = CC(C)(N)C(=O)O

What was measured:
Type in all cases: cell-based
GLP-1R (INS1e assay) = biological target: T1, GLP-1R (INS1e assay) (Rattus norvegicus, UniProt P32301); experiment: INS1e assay, cAMP activity at GLP-1R; conditions: bis-lipidated peptides
T1 construct: endogenous in cells; host or cells: INS-1E cells
T1 sequence (P32301 22-463): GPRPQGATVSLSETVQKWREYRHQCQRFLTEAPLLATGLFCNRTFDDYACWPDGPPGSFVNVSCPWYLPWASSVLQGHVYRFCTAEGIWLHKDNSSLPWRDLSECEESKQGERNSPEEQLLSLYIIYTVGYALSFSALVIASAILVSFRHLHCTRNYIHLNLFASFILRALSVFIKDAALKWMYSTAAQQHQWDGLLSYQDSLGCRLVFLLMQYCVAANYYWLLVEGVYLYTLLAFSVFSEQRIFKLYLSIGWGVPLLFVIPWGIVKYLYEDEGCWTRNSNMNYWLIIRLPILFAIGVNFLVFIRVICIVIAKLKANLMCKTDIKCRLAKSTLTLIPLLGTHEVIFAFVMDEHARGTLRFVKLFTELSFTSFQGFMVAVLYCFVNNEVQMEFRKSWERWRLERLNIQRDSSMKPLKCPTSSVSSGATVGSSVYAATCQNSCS
Experimental: cAMP levels are measured using a commercially available cAMP dynamic 2 HTRF kit (Cisbio, Cat #62AM4PEJ), following the two step protocol as per manufacturer's recommendations. In brief; anti-cAMP cryptate (donor fluorophore) and cAMP-d2 (acceptor fluorophore) are made up separately by diluting each 1/20 in conjugate & lysis buffer provided in the kit. 5 μL anti-cAMP cryptate is added to wells of the assay plate, and 5 μL cAMP-d2 is added to wells except non-specific binding (NSB) wells, to which conjugate and lysis buffer are added. […] EC50 values of the synthetic peptides determined in cAMP assays are then determined.

[1] = biological target: T2, human glucose-dependent insulinotropic peptide receptor (GIPR) (Homo sapiens, UniProt P48546); experiment: cAMP assay, human GIPR cells; conditions: tris-lipidated peptides
T2 construct: expressed in transfected cells
T2 sequence (P48546 22-466): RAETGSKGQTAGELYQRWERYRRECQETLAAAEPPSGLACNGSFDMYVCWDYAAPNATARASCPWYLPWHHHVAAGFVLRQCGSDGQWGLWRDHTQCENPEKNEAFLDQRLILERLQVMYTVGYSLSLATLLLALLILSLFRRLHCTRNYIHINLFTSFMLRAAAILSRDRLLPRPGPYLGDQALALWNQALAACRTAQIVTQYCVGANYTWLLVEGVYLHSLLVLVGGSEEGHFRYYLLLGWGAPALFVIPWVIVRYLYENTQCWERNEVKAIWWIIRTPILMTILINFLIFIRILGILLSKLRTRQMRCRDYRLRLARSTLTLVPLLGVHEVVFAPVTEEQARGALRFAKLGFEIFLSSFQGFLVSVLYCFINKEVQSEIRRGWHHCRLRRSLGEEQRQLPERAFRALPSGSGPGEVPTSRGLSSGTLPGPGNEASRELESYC
Outline: (§1)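 Peptide-stimulated cAMP measured by two-step HTRF after a 30 min room-temperature incubation with receptor-expressing cells (hGLP-1R, hGIPR at 1×10^5 cells/ml; hGCGR at 2×10^5 cells/ml). Duplicate dilutions; EC50 from 4-parameter logistic fit of % Delta F.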

[2] = biological target: T3, human GLP-1 receptor (GLP-1R) (Homo sapiens, UniProt P43220); experiment: cAMP assay, human GLP-1R cells; conditions: tris-lipidated peptides
T3 construct: expressed in transfected cells
T3 sequence (P43220 24-463): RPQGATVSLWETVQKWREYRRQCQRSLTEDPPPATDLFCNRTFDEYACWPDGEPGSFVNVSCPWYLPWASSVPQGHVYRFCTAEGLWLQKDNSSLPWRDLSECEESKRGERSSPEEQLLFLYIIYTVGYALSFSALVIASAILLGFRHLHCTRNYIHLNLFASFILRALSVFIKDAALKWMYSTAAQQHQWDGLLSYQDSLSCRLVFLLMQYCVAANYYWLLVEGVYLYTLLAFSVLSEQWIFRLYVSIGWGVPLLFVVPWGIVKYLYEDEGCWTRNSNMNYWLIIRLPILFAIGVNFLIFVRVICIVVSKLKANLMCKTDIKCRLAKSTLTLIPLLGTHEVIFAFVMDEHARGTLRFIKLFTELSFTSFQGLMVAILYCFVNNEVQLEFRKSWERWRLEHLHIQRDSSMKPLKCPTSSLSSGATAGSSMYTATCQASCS
Outline: as §1

[3] = biological target: T4, human glucagon receptor (GCGR) (Homo sapiens, UniProt P47871); experiment: cAMP assay, human GCGR cells; conditions: tris-lipidated peptides
T4 construct: expressed in transfected cells
T4 sequence (P47871 26-477): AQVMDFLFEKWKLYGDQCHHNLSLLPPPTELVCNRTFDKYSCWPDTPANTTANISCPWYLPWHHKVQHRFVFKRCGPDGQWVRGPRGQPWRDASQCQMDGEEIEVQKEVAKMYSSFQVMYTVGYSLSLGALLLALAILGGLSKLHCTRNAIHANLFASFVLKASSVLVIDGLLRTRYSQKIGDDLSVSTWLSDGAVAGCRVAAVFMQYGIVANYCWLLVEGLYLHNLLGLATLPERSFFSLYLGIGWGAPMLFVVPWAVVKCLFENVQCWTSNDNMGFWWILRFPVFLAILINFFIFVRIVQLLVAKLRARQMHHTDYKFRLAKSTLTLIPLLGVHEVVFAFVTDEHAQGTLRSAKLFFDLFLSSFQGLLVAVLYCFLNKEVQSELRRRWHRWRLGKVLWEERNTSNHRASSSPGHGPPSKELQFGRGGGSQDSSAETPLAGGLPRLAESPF
Outline: as §1

[4] = first replicate, read-out: Primary assay EC50 GIP-R (n1)
[5] = mean of n1 and n2, read-out: Primary assay EC50 Mean pM GLP-1R
[6] = replicate n1, read-out: Primary assay EC50 GLP-1R n1
[7] = replicate n2, read-out: Primary assay EC50 GLP-1R n2
[8] = first replicate, read-out: Primary assay EC50 Gluc-R (n1)

Row | SMILES | EC50 (GLP-1R (INS1e assay); mean of n1 and n2, read-out: INS1e assay EC50 Mean pM GLP-1R) [pM] | EC50 (GLP-1R (INS1e assay); replicate n1, read-out: INS1e assay EC50 GLP-1R n1) [pM] | EC50 (GLP-1R (INS1e assay); replicate n2, read-out: INS1e assay EC50 GLP-1R n2) [pM] | EC50 [1, 4] [pM] | EC50 [2, 5] [pM] | EC50 [2, 6] [pM] | EC50 [2, 7] [pM] | EC50 [3, 8] [pM] | EC50 ([1]; second replicate, read-out: Primary assay EC50 GIP-R (n2)) [pM] | EC50 ([3]; second replicate, read-out: Primary assay EC50 Gluc-R (n2)) [pM]
1 | CCCCCCCCCCCC(=O)N[C@@H](CCC(=O)NCCOCCOCC(=O)NCCOCCOCC(=O)NCCCC[C@H](NC(=O)[C@H](C)NC(=O)[C@@H](NC(=O)[C@H](CCCC)NC(=O)[C@H](CCC(=O)O)NC(=O)[C@](C)(CCCCN)NC(=O)[C@H](C)NC(=O)[C@H](C)NC(=O)[C@H](CCC(=O)O)NC(=O)CNC(=O)[C@H](CCC(=O)O)NC(=O)[C@H](CC(C)C)NC(=O)[C@H](CCCCNC(=O)COCCOCCNC(=O)COCCOCCNC(=O)CC[C@H](NC(=O)CCCCCCCCCCC)C(=O)O)NC(=O)[C@H](CO)NC(=O)[C@](C)(CO)NC(=O)[C@@H](NC(=O)[C@H](CC(=O)O)NC(=O)[C@H](CO)NC(=O)[C@@H](NC(=O)[C@](C)(Cc1ccccc1)NC(=O)[C@H](CO)NC(=O)CNC(=O)[C@H](CCC(=O)O)NC(=O)C(C)(C)NC(=O)[C@@H](N)Cc1c[nH]cn1)[C@@H](C)O)C(C)C)[C@@H](C)CC)C(=O)N[C@H](C(=O)N[C@H](C(=O)N[C@@H](CCC(=O)O)C(=O)NCC(=O)NCC(N)=O)C(C)C)C(C)C)C(=O)O [compound 407] (H-H[Aib]EGS[αMeF]TSDV[αMeS]SK([AEEA-AEEA-γGlu-Lauroyl])LEGEAA[αMeK]E[Nle]IAK([AEEA-AEEA-γGlu-Lauroyl])VVEGG-NH2) | 104 | 113 | 95.2 |  |  |  |  |  |  | 
2 | CCCCCCCCCCCC(=O)N[C@@H](CCC(=O)NCCOCCOCC(=O)NCCOCCOCC(=O)NCCCC[C@H](NC(=O)[C@H](CCC(=O)O)NC(=O)[C@H](CCCCNC(=O)COCCOCCNC(=O)COCCOCCNC(=O)CC[C@H](NC(=O)CCCCCCCCCCC)C(=O)O)NC(=O)[C@H](Cc1ccc(O)cc1)NC(=O)[C@H](CO)NC(=O)[C@](C)(CO)NC(=O)[C@@H](NC(=O)[C@H](CC(=O)O)NC(=O)[C@H](CO)NC(=O)[C@@H](NC(=O)[C@](C)(Cc1ccccc1)NC(=O)[C@H](CO)NC(=O)CNC(=O)[C@H](CCC(=O)O)NC(=O)C(C)(C)NC(=O)[C@@H](N)Cc1c[nH]cn1)[C@@H](C)O)C(C)C)C(=O)N[C@@H](CCC(=O)O)C(=O)N[C@@H](C)C(=O)N[C@@H](C)C(=O)N[C@@](C)(CCCCN)C(=O)N[C@@H](CCC(=O)O)C(=O)N[C@@H](Cc1ccccc1)C(=O)N[C@H](C(=O)N[C@@H](C)C(=O)N[C@@H](Cc1ccccc1)C(=O)N[C@@H](CCCCNC(=O)COCCOCCNC(=O)COCCOCCNC(=O)CC[C@H](NC(=O)CCCCCCCCCCC)C(=O)O)C(=O)N[C@H](C(=O)N[C@@H](CCC(=O)O)C(=O)NCC(=O)NCC(N)=O)C(C)C)[C@@H](C)CC)C(=O)O [compound 483] (H-H[Aib]EGS[αMeF]TSDV[αMeS]SYK([AEEA-AEEA-γGlu-Lauroyl])EK([AEEA-AEEA-γGlu-Lauroyl])EAA[αMeK]EFIAFK([AEEA-AEEA-γGlu-Lauroyl])VEGG-NH2; N-terminus assumed) |  |  |  | ≥ 19600 | 244 | 229 | 258 | ≥ 19600 |  | 
3 | CCCCCCCCCCCC(=O)N[C@@H](CCC(=O)NCCOCCOCC(=O)NCCOCCOCC(=O)NCCCC[C@H](NC(=O)CNC(=O)[C@H](CCC(=O)O)NC(=O)[C@H](CCCCNC(=O)COCCOCCNC(=O)COCCOCCNC(=O)CC[C@H](NC(=O)CCCCCCCCCCC)C(=O)O)NC(=O)[C@H](Cc1ccc(O)cc1)NC(=O)[C@H](CO)NC(=O)[C@](C)(CO)NC(=O)[C@@H](NC(=O)[C@H](CC(=O)O)NC(=O)[C@H](CO)NC(=O)[C@@H](NC(=O)[C@](C)(Cc1ccccc1)NC(=O)[C@H](CO)NC(=O)CNC(=O)[C@H](CCC(=O)O)NC(=O)C(C)(C)NC(=O)[C@@H](N)Cc1c[nH]cn1)[C@@H](C)O)C(C)C)C(=O)N[C@@H](C)C(=O)N[C@@H](C)C(=O)N[C@@](C)(CCCCN)C(=O)N[C@@H](CCC(=O)O)C(=O)N[C@@H](Cc1ccccc1)C(=O)N[C@H](C(=O)N[C@@H](C)C(=O)N[C@@H](Cc1ccccc1)C(=O)N[C@@H](CCCCNC(=O)COCCOCCNC(=O)COCCOCCNC(=O)CC[C@H](NC(=O)CCCCCCCCCCC)C(=O)O)C(=O)N[C@H](C(=O)N[C@@H](CCC(=O)O)C(=O)NCC(=O)NCC(N)=O)C(C)C)[C@@H](C)CC)C(=O)O [compound 484] (H-H[Aib]EGS[αMeF]TSDV[αMeS]SYK([AEEA-AEEA-γGlu-Lauroyl])EGK([AEEA-AEEA-γGlu-Lauroyl])AA[αMeK]EFIAFK([AEEA-AEEA-γGlu-Lauroyl])VEGG-NH2) |  |  |  | ≥ 19900 |  | 163 |  | ≥ 19900 |  | 
4 | CCCCCCCCCCCC(=O)N[C@@H](CCC(=O)NCCOCCOCC(=O)NCCOCCOCC(=O)NCCCC[C@H](NC(=O)[C@H](CCC(=O)O)NC(=O)CNC(=O)[C@H](CCC(=O)O)NC(=O)[C@H](CCCCNC(=O)COCCOCCNC(=O)COCCOCCNC(=O)CC[C@H](NC(=O)CCCCCCCCCCC)C(=O)O)NC(=O)[C@H](Cc1ccc(O)cc1)NC(=O)[C@H](CO)NC(=O)[C@](C)(CO)NC(=O)[C@@H](NC(=O)[C@H](CC(=O)O)NC(=O)[C@H](CO)NC(=O)[C@@H](NC(=O)[C@](C)(Cc1ccccc1)NC(=O)[C@H](CO)NC(=O)CNC(=O)[C@H](CCC(=O)O)NC(=O)C(C)(C)NC(=O)[C@@H](N)Cc1c[nH]cn1)[C@@H](C)O)C(C)C)C(=O)N[C@@H](C)C(=O)N[C@@](C)(CCCCN)C(=O)N[C@@H](CCC(=O)O)C(=O)N[C@@H](Cc1ccccc1)C(=O)N[C@H](C(=O)N[C@@H](C)C(=O)N[C@@H](Cc1ccccc1)C(=O)N[C@@H](CCCCNC(=O)COCCOCCNC(=O)COCCOCCNC(=O)CC[C@H](NC(=O)CCCCCCCCCCC)C(=O)O)C(=O)N[C@H](C(=O)N[C@@H](CCC(=O)O)C(=O)NCC(=O)NCC(N)=O)C(C)C)[C@@H](C)CC)C(=O)O [compound 485] (H-H[Aib]EGS[αMeF]TSDV[αMeS]SYK([AEEA-AEEA-γGlu-Lauroyl])EGEK([AEEA-AEEA-γGlu-Lauroyl])A[αMeK]EFIAFK([AEEA-AEEA-γGlu-Lauroyl])VEGG-NH2) |  |  |  | 19600 | 195 | 167 | 224 | 19600 |  | 
5 | CCCCCCCCCCCC(=O)N[C@@H](CCC(=O)NCCOCCOCC(=O)NCCOCCOCC(=O)NCCCC[C@H](NC(=O)[C@H](Cc1ccc(O)cc1)NC(=O)[C@H](CO)NC(=O)[C@](C)(CO)NC(=O)[C@@H](NC(=O)[C@H](CC(=O)O)NC(=O)[C@H](CO)NC(=O)[C@@H](NC(=O)[C@](C)(Cc1ccccc1)NC(=O)[C@H](CO)NC(=O)CNC(=O)[C@H](CCC(=O)O)NC(=O)C(C)(C)NC(=O)[C@@H](N)Cc1c[nH]cn1)[C@@H](C)O)C(C)C)C(=O)N[C@@H](CCC(=O)O)C(=O)NCC(=O)N[C@@H](CCC(=O)O)C(=O)N[C@@H](C)C(=O)N[C@@H](C)C(=O)N[C@@](C)(CCCCN)C(=O)N[C@@H](CCCCNC(=O)COCCOCCNC(=O)COCCOCCNC(=O)CC[C@H](NC(=O)CCCCCCCCCCC)C(=O)O)C(=O)N[C@@H](Cc1ccccc1)C(=O)N[C@H](C(=O)N[C@@H](C)C(=O)N[C@@H](Cc1ccccc1)C(=O)N[C@@H](CCCCNC(=O)COCCOCCNC(=O)COCCOCCNC(=O)CC[C@H](NC(=O)CCCCCCCCCCC)C(=O)O)C(=O)N[C@H](C(=O)N[C@@H](CCC(=O)O)C(=O)NCC(=O)NCC(N)=O)C(C)C)[C@@H](C)CC)C(=O)O [compound 486] (H-H[Aib]EGS[αMeF]TSDV[αMeS]SYK([AEEA-AEEA-γGlu-Lauroyl])EGEAA[αMeK]K([AEEA-AEEA-γGlu-Lauroyl])FIAFK([AEEA-AEEA-γGlu-Lauroyl])VEGG-NH2; N-terminus assumed) |  |  |  |  | 212 | 165 | 259 |  | 19900 | 19900
